Measurements reported in PubChem BioAssay (NCI).
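GI50 is the concentration that inhibits growth by half. TGI: total growth inhibition.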

Experiments:
Experiment in all cases: DTP human tumour cell line panel, 384-well format
NCI-H23 lung = system: NCI-H23 lung
NCI-H322M lung = system: NCI-H322M lung
NCI-H460 NSCLC = system: NCI-H460 NSCLC
NCI-H522 lung = system: NCI-H522 lung
NCI/ADR-RES ovarian = system: NCI/ADR-RES ovarian
OVCAR-3 ovarian = system: OVCAR-3 ovarian
OVCAR-4 ovarian = system: OVCAR-4 ovarian
OVCAR-5 ovarian = system: OVCAR-5 ovarian
PC-3 prostate = system: PC-3 prostate
RPMI-8226 leukemia = system: RPMI-8226 leukemia
RXF 393 renal = system: RXF 393 renal
SF-268 CNS = system: SF-268 CNS
SF-295 CNS = system: SF-295 CNS
SF-539 CNS = system: SF-539 CNS
SK-MEL-2 melanoma = system: SK-MEL-2 melanoma
SK-MEL-28 melanoma = system: SK-MEL-28 melanoma
SK-MEL-5 melanoma = system: SK-MEL-5 melanoma
SK-OV-3 ovarian = system: SK-OV-3 ovarian
SN12C renal = system: SN12C renal
SNB-19 CNS = system: SNB-19 CNS
SNB-75 CNS = system: SNB-75 CNS
SR leukemia = system: SR leukemia
SW-620 colon = system: SW-620 colon
T-47D breast = system: T-47D breast
TK-10 renal = system: TK-10 renal
U251 glioblastoma = system: U251 glioblastoma
UACC-257 melanoma = system: UACC-257 melanoma
UACC-62 melanoma = system: UACC-62 melanoma
UO-31 renal = system: UO-31 renal

O=C(c1ccc(/C=C/c2n[nH]c3ccccc23)cc1)N1CCNCC1
GI50 (NCI-H23 lung): 2.69 µM | TGI (NCI-H23 lung): 13.6 µM | GI50 (NCI-H322M lung): 11.7 µM | TGI (NCI-H322M lung): 27.8 µM | GI50 (NCI-H460 NSCLC): 0.543 µM | TGI (NCI-H460 NSCLC): 10.9 µM | GI50 (NCI-H522 lung): 0.529 µM | TGI (NCI-H522 lung): 5.51 µM | GI50 (NCI/ADR-RES ovarian): 13.8 µM | TGI (NCI/ADR-RES ovarian): 26.9 µM | GI50 (OVCAR-3 ovarian): 11.6 µM | TGI (OVCAR-3 ovarian): 24.5 µM | GI50 (OVCAR-4 ovarian): 21.7 µM | TGI (OVCAR-4 ovarian): 37.5 µM | GI50 (OVCAR-5 ovarian): 3.48 µM | TGI (OVCAR-5 ovarian): > 100 µM | GI50 (PC-3 prostate): 5.28 µM | TGI (PC-3 prostate): 21.2 µM | GI50 (RPMI-8226 leukemia): 1.17 µM | TGI (RPMI-8226 leukemia): 11.1 µM | GI50 (RXF 393 renal): 6.96 µM | TGI (RXF 393 renal): 19.7 µM | GI50 (SF-268 CNS): 4.18 µM | TGI (SF-268 CNS): 19.5 µM | GI50 (SF-295 CNS): 2.12 µM | TGI (SF-295 CNS): 17.3 µM | GI50 (SF-539 CNS): 1.53 µM | TGI (SF-539 CNS): 5.75 µM | GI50 (SK-MEL-2 melanoma): 14.5 µM | TGI (SK-MEL-2 melanoma): 27.7 µM | GI50 (SK-MEL-28 melanoma): 11.7 µM | TGI (SK-MEL-28 melanoma): 24 µM | GI50 (SK-MEL-5 melanoma): 5.38 µM | TGI (SK-MEL-5 melanoma): 19.4 µM | GI50 (SK-OV-3 ovarian): 7.59 µM | TGI (SK-OV-3 ovarian): 21 µM | GI50 (SN12C renal): 1.88 µM | TGI (SN12C renal): 10.6 µM | GI50 (SNB-19 CNS): 12.1 µM | TGI (SNB-19 CNS): 27.7 µM | GI50 (SNB-75 CNS): 3.4 µM | TGI (SNB-75 CNS): 9.95 µM | GI50 (SR leukemia): 0.18 µM | TGI (SR leukemia): 0.32 µM | GI50 (SW-620 colon): 3.1 µM | TGI (SW-620 colon): 14.1 µM | GI50 (T-47D breast): 17.7 µM | TGI (T-47D breast): 31.9 µM | GI50 (TK-10 renal): 4.91 µM | TGI (TK-10 renal): 22.7 µM | GI50 (U251 glioblastoma): 11.2 µM | TGI (U251 glioblastoma): 23.7 µM | GI50 (UACC-257 melanoma): 5.94 µM | TGI (UACC-257 melanoma): 17.8 µM | GI50 (UACC-62 melanoma): 7.66 µM | TGI (UACC-62 melanoma): 20.8 µM | GI50 (UO-31 renal): 2.69 µM | TGI (UO-31 renal): 17.2 µM
